Key:
[1] = target: T1, aggregated recombinant human-microtubule associated protein Tau (Homo sapiens, UniProt P10636); assay: Thiazin-red R displacement fluorescence assay on aggregated Tau; assay type: binding; conditions: displacement of Thiazin-red R from aggregated Tau; compound 0.3 nM to 10000 nM; 30 min room temperature; Ex 531 nm/Em 595 nm
T1 construct: Recombinant human-microtubule associated protein Tau purified from E. coli is aggregated at a concentration of 5 μM with Arachidonic Acid (100 μM) in Tris 10 mM pH8, 24 h at 37° C
Method: (§1) Assay for Determination of […] for Tau and A-Beta
(§2) Recombinant human-microtubule associated protein Tau purified from E. coli is aggregated at a concentration of 5 μM with Arachidonic Acid (100 μM) in Tris 10 mM pH8, 24 h at 37° C. Synthetic Aβ40 is aggregated at a concentration of 50 μM with Arachidonic Acid (100 μM) in Tris 10 mM pH8, for three days at 37° C., under shaking at 150 rpm.
(§3) A saturation analysis of Thiazin-red R to the aggregated proteins is done to determine the affinity (Kd) of the Thiazin-red R to the aggregated protein.
(§4) Thiazin-red R will be added at the concentration corresponding to the Kd to the respective aggregated protein binding site, to induce a fluorescent signal that can be inhibited by the addition of a displacer compound.
(§5) In parallel, auto fluorescence of the compound is measured together with the aggregated proteins, but without Thiazin-red R. As negative control, ligand and aggregated protein is used and as positive control, Thiazin-red R, reference compound with known activity and aggregated protein is used.
(§6) Assay is performed in Perkin Elmer OptiPlate 384, black, 45 ul assay volume, assay buffer is DPBS no CaCl2 no MgCl2 (GIBCO N. 14020). Tested compounds are diluted in DMSO and 2 μl is added to the assay ([…]). Assay is started by the addition of the aggregated protein (competitive condition). Plates are shortly shacked (1 min with Sterico variomag teleshake) and incubated for 30 min at room temperature. Measurement are done with En:Vision (Perkin Elmer), at Excitation 531 nm/Emission 595 nm.

[2] = target: T2, aggregated synthetic Aβ40 (Homo sapiens, UniProt P05067); assay: Thiazin-red R displacement fluorescence assay on aggregated A-beta; assay type: binding; conditions: displacement of Thiazin-red R from aggregated Aβ40; compound 0.3 nM to 10000 nM; 30 min room temperature; Ex 531 nm/Em 595 nm
T2 construct: Synthetic Aβ40 is aggregated at a concentration of 50 μM
Method: as §1, §2, §3, §4, §5, §6

T1 sequence (P10636 whole entry): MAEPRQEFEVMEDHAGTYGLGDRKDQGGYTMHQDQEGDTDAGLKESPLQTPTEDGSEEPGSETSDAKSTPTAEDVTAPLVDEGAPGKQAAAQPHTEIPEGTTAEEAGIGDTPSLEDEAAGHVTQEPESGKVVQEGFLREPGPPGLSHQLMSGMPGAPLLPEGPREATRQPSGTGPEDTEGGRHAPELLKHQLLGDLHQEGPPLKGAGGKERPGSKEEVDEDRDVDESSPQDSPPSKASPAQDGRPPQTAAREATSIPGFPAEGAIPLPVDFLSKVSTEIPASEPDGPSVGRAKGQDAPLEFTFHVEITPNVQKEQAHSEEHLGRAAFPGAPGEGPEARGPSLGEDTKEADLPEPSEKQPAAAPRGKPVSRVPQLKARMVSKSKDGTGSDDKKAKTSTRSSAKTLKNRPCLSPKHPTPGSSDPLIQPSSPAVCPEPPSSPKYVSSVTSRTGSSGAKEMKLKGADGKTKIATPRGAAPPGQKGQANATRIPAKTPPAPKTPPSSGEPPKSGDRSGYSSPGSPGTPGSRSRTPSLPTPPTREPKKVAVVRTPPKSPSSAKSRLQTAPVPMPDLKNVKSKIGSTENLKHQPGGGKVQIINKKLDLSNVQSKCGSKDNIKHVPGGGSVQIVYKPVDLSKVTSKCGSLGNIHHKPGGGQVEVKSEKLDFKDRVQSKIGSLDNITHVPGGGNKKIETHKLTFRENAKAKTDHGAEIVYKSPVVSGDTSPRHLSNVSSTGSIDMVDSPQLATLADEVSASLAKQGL
T2 sequence (P05067 672-711 limits assumed): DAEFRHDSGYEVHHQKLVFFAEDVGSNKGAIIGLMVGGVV

| Structure (SMILES) | IC50 [1] | IC50 [2] |
| --- | --- | --- |
| COc1cc(/C=c2\sc3nc(-c4cccc(C#N)c4)cn3c2=O)cc(OC(C)C)c1O [Example 51, 3-{2-[1-(4-Hydroxy-3-methoxy-5-isopropoxyphenyl)-meth-(Z)-ylidene]-3-oxo-2,3-dihydro-imidazo[2,1-b]thiazol-6-yl}-benzonitrile] | 275 nM | > 10000 nM |
| COc1cc(/C=c2\sc3nc(-c4cccc(C)c4)cn3c2=O)cc(Cl)c1O [Example 52, 2-[1-(3-Chloro-4-hydroxy-5-methoxy-phenyl)-meth-(Z)-ylidene]-6-m-tolyl-imidazo[2,1-b]thiazol-3-one] | 7 nM | 1020 nM |
| COc1cc(/C=c2\sc3nc(-c4ccccc4F)cn3c2=O)cc(Cl)c1O [Example 53, 2-[1-(3-Chloro-4-hydroxy-5-methoxy-phenyl)-meth-(Z)-ylidene]-6-(2-fluoro-phenyl)-imidazo[2,1-b]thiazol-3-one] | 16 nM | 5650 nM |
| CCc1cccc(-c2cn3c(=O)/c(=C/c4cc(Cl)c(O)c(OC)c4)sc3n2)c1 [Example 54, 2-[1-(3-Chloro-4-hydroxy-5-methoxy-phenyl)-meth-(Z)-ylidene]-6-(3-ethyl-phenyl)-imidazo[2,1-b]thiazol-3-one] | 25 nM | 653 nM |
| COc1cc(/C=c2\sc3nc(-c4cccc(F)c4)cn3c2=O)cc(Cl)c1O [Example 57, 2-[1-(3-Chloro-4-hydroxy-5-methoxy-phenyl)-meth-(Z)-ylidene]-6-(3-fluoro-phenyl)-imidazo[2,1-b]thiazol-3-one] | 6 nM | 3320 nM |
| COc1cc(/C=c2\sc3nc(-c4cccc(F)c4)cn3c2=O)cc(F)c1O [Example 58, 2-[1-(3-Fluoro-4-hydroxy-5-methoxy-phenyl)-meth-(Z)-ylidene]-6-(3-fluoro-phenyl)-imidazo[2,1-b]thiazol-3-one] | 19 nM | 752 nM |
| COc1cc(/C=c2\sc3nc(-c4cccc(F)c4)cn3c2=O)cc(OC)c1O [Example 59, 2-[1-(4-Hydroxy-3,5-dimethoxy-phenyl)-meth-(Z)-ylidene]-6-(3-fluoro-phenyl)-imidazo[2,1-b]thiazol-3-one] | 2 nM | 50 nM |
| COc1cc(/C=c2\sc3nc(-c4ccccc4)cn3c2=O)cc(Cl)c1O [Example 60, 2-[1-(3-Chloro-4-hydroxy-5-methoxy-phenyl)-meth-(Z)-ylidene]-6-phenyl-imidazo[2,1-b]thiazol-3-one] | 25 nM | 851 nM |
| COc1cccc(-c2cn3c(=O)/c(=C/c4cc(Cl)c(O)c(OC)c4)sc3n2)c1 [Example 61, 2-[1-(3-Chloro-4-hydroxy-5-methoxy-phenyl)-meth-(Z)-ylidene]-6-(3-methoxy-phenyl)-imidazo[2,1-b]thiazol-3-one] | 4 nM | 395 nM |
| COc1cc(/C=c2\sc3nc(-c4cccc(OC(F)F)c4)cn3c2=O)cc(Cl)c1O [Example 62, 2-[1-(3-Chloro-4-hydroxy-5-methoxy-phenyl)-meth-(Z)-ylidene]-6-(3-(difluoromethoxy)-phenyl)-imidazo[2,1-b]thiazol-3-one] | 6 nM | 4160 nM |
| COc1cc(/C=c2\sc3nc(-c4cc(C)nc(C)c4)cn3c2=O)cc(Cl)c1O [Example 63, 2-[1-(3-Chloro-4-hydroxy-5-methoxy-phenyl)-meth-(Z)-ylidene]-6-(2,6-dimethyl-pyridin-4-yl)-imidazo[2,1-b]thiazol-3-one] | 13 nM | 418 nM |
| COc1cc(/C=c2\sc3nc(-c4cc(C)nc(C)c4)cn3c2=O)cc(F)c1O [Example 64, 2-[1-(3-Fluoro-4-hydroxy-5-methoxy-phenyl)-meth-(Z)-ylidene]-6-(2,6-dimethyl-pyridin-4-yl)-imidazo[2,1-b]thiazol-3-one] | 32 nM | 406 nM |
| COc1cc(/C=c2\sc3nc(-c4cc(C)nc(C)c4)cn3c2=O)cc(Br)c1O [Example 65, 2-[1-(3-Bromo-4-hydroxy-5-methoxy-phenyl)-meth-(Z)-ylidene]-6-(2,6-dimethyl-pyridin-4-yl)-imidazo[2,1-b]thiazol-3-one] | 7 nM | 304 nM |
| COc1cc(/C=c2\sc3nc(-c4cccc(CCl)c4)cn3c2=O)cc(Cl)c1O [Example 67, 2-[1-(3-Chloro-4-hydroxy-5-methoxy-phenyl)-meth-(Z)-ylidene]-6-(3-(chloromethyl)phenyl)-imidazo[2,1-b]thiazol-3-one] | 0.8 nM | 9 nM |
| COc1cc(/C=c2\sc3nc(-c4ccncc4)cn3c2=O)cc(Cl)c1O [Example 68, 2-[1-(3-Chloro-4-hydroxy-5-methoxy-phenyl)-meth-(Z)-ylidene]-6-(pyridin-4-yl)-imidazo[2,1-b]thiazol-3-one] | 3 nM | 300 nM |
| COc1cc(/C=c2\sc3nc(-c4ccncc4)cn3c2=O)cc(F)c1O [Example 69, 2-[1-(3-Fluoro-4-hydroxy-5-methoxy-phenyl)-meth-(Z)-ylidene]-6-(pyridin-4-yl)-imidazo[2,1-b]thiazol-3-one] | 20 nM | 620 nM |
| COc1cc(/C=c2\sc3nc(-c4ccncc4)cn3c2=O)cc(Br)c1O [Example 70, 2-[1-(3-Bromo-4-hydroxy-5-methoxy-phenyl)-meth-(Z)-ylidene]-6-(pyridin-4-yl)-imidazo[2,1-b]thiazol-3-one] | 1.3 nM | 103 nM |
| COc1cc(/C=c2\sc3nc(-c4cccnc4)cn3c2=O)cc(F)c1O [Example 71, 2-[1-(3-Fluoro-4-hydroxy-5-methoxy-phenyl)-meth-(Z)-ylidene]-6-(pyridin-3-yl)-imidazo[2,1-b]thiazol-3-one] | 20 nM | 238 nM |
| COc1cc(/C=c2\sc3nc(-c4cccnc4)cn3c2=O)cc(Br)c1O [Example 72, 2-[1-(3-Bromo-4-hydroxy-5-methoxy-phenyl)-meth-(Z)-ylidene]-6-(pyridin-3-yl)-imidazo[2,1-b]thiazol-3-one] | 3 nM | 229 nM |
| COc1cc(/C=c2\sc3nc(-c4cccc(OCCF)c4)cn3c2=O)cc(Cl)c1O [Example 74, 2-[1-(3-Chloro-4-hydroxy-5-methoxy-phenyl)-meth-(Z)-ylidene]-6-(3-(2-fluoroethoxyl)phenyl)-imidazo[2,1-b]thiazol-3-one] | 5 nM | 55 nM |
| COc1cc(/C=c2\sc3nc(-c4ccnc(C)c4)cn3c2=O)cc(Cl)c1O [Example 75, 2-[1-(3-Chloro-4-hydroxy-5-methoxy-phenyl)-meth-(Z)-ylidene]-6-(2-methylpyridin-4-yl)-imidazo[2,1-b]thiazol-3-one] | 1.3 nM | 122 nM |
| COc1cc(/C=c2\sc3nc(-c4ccnc(C)c4)cn3c2=O)cc(F)c1O [Example 76, 2-[1-(3-Fluoro-4-hydroxy-5-methoxy-phenyl)-meth-(Z)-ylidene]-6-(2-methylpyridin-4-yl)-imidazo[2,1-b]thiazol-3-one] | 6 nM | 260 nM |
| COc1cc(/C=c2\sc3nc(-c4ccnc(C)c4)cn3c2=O)cc(Br)c1O [Example 77, 2-[1-(3-Bromo-4-hydroxy-5-methoxy-phenyl)-meth-(Z)-ylidene]-6-(2-methylpyridin-4-yl)-imidazo[2,1-b]thiazol-3-one] | 1 nM | 76 nM |
| COc1cc(/C=c2\sc3nc(-c4cccnc4)cn3c2=O)cc(Cl)c1O [Example 78, 2-[1-(3-Chloro-4-hydroxy-5-methoxy-phenyl)-meth-(Z)-ylidene]-6-(pyridin-3-yl)-imidazo[2,1-b]thiazol-3-one] | 10.4 nM | 700 nM |
| COc1cc(/C=c2\sc3nc(-c4ccc(OCCF)cc4)cn3c2=O)cc(Cl)c1O [Example 79, 2-[1-(3-Chloro-4-hydroxy-5-methoxy-phenyl)-meth-(Z)-ylidene]-6-(4-(2-fluoroethoxyl)phenyl)-imidazo[2,1-b]thiazol-3-one] | 6 nM | 25 nM |
| C=CCOc1cccc(-c2cn3c(=O)/c(=C/c4cc(Cl)c(O)c(OC)c4)sc3n2)c1 [Example 80, 2-[1-(3-Chloro-4-hydroxy-5-methoxy-phenyl)-meth-(Z)-ylidene]-6-(3-(allyloxy)phenyl)-imidazo[2,1-b]thiazol-3-one] | 6 nM | 20 nM |
| COc1cc(/C=c2\sc3nc(-c4cc(C)on4)cn3c2=O)cc(Cl)c1O [Example 84, 2-[1-(3-Chloro-4-hydroxy-5-methoxy-phenyl)-meth-(Z)-ylidene]-6-(5-methyl-isoxazol-3-yl)-imidazo[2,1-b]thiazol-3-one] | 18 nM | 990 nM |

— patent US20150157739A1, “Imidazo[2,1]thiazol-3-one derivatives” (Hoffmann-La Roche Inc., priority 2012, published 2015)
